Reference: ChEMBL document CHEMBL2440097, “Triphenylphosphonium salts of 1,2,4-benzothiadiazine 1,1-dioxides related to diazoxide targeting mitochondrial ATP-sensitive potassium channels” (Bioorg Med Chem Lett, 2013)
Active and inactive are the calls of the source. The calls are words filed in the database; no cut-off is given here.

What was measured:
H9c2 [1] = assay: Effect on maximal respiratory capacity in […] H9C2 cells at 10 uM by high resolution oxygraphic analysis; format: functional, cell-based
H9c2 [2] = assay: Effect on routine respiration in […] H9C2 cells at 10 uM by high resolution oxygraphic analysis; format: functional, cell-based
[3] = biological target: Kir6.2/SUR1 (Rattus norvegicus) (UniProt P70673+Q09429); assay: Activation of Kir6.2/SUR1 in rat pancreatic islets assessed as residual glucose-induced insulin release at 10 uM relative to control
H9c2 [4] = assay: Effect on ATP production in […] H9C2 cells up to 10 uM after 24 hrs by CellTiter-Glo luminescent test; format: functional, cell-based
H9c2 [5] = assay: Effect on metabolic activity in […] H9C2 cells up to 10 uM incubated for 1 hr followed by paraquat addition measured after 24 hrs by CellTiter 96 Aqueous non-radioactive cell proliferation assay; format: functional, cell-based
[6] = Drug uptake in cytosol of […] H9C2 cells at 1 x 10^-4 M after 2 hrs by LC-MS analysis; format: ADME, cell-based; settings: 100 µM
H9c2 [7] = assay: Effect on oligomycin-inhibited leak respiration in […] H9C2 cells at 10 uM by high resolution oxygraphic analysis; format: functional, cell-based
[8] = Drug uptake in mitochondria of […] H9C2 cells at 1 x 10^-4 M after 2 hrs by LC-MS analysis; format: ADME; settings: h9c2, 2 h, 100 µM

Structure (SMILES) | Activity (H9c2 [1]) | Activity (H9c2 [2]) | Activity [3] [%] | Activity (H9c2 [4]) | Activity (H9c2 [5]) | Drug uptake [6] | Activity (H9c2 [7]) | Drug uptake [8]
C[C@H](COC(=O)CC[P+](c1ccccc1)(c1ccccc1)c1ccccc1)NC1=NS(=O)(=O)c2cc(Cl)ccc2N1 | inactive | inactive | 56 | inactive | inactive |  |  | 
C[C@H](COC(=O)CCC[P+](c1ccccc1)(c1ccccc1)c1ccccc1)NC1=NS(=O)(=O)c2cc(Cl)ccc2N1 | inactive | inactive | 63.7 | inactive | inactive |  |  | 
C[C@H](COC(=O)C[P+](c1ccccc1)(c1ccccc1)c1ccccc1)NC1=NS(=O)(=O)c2cc(Cl)ccc2N1.[Cl-] | inactive | inactive | 27 | inactive | inactive | Active | Active | Active
CC1=Nc2ccc(Cl)cc2S(=O)(=O)N1 |  |  | 73.9 |  |  |  |  | 
